# Measurements as given in US20240262795A1, “PYRAZINE COMPOUNDS AS INHIBITORS OF FLT3” (Biomea Fusion, Inc., priority 2021, published 2024).
# What was measured:
# Assay type in all cases: cell-based, human
# K-562 = assay: Proliferation inhibition, CellTiter-Glo, K-562; conditions: Homo sapiens, K562, 96 h; K-562 cells, IC50 (4 days), CellTiter-Glo; read-out: K-562 IC50
# From the text: (§1) The proliferation inhibitory effect was investigated in human AML cell lines MOLM-13 (AddexBio: C0003003) and MV-4-11 (ATCC: CRL-9591), and CML cell line […] (ATCC: CRL-3343). Molm-13 is heterozygous for FLT3-ITD mutation, while MV4-11 is homozygous for FLT3-ITD (Quentmeier H, et al., Leukemia. 17(1):120-4). […] Cells were maintained in RPMI-1640 medium (ThermoFisher catalog no. 61870036) supplemented with 10% of Heat Inactivated FBS (ThermoFisher catalog no. A31605) and 1% Pen-Strep (ThermoFisher catalog no. 10378016) and cultured at 37° C. in a humidified incubator with 5% CO2. Cell lines were grown by […], and the cells were maintained in a range 70%-80% confluency.
# (§2) ATP is present in all metabolically active cells and is considered as a marker for cell viability and proliferation. Metabolic cell activity was determined using the CellTiter-Glo kit (Promega catalog no. G7572), an ATP monitoring system based on the production of luminescence by the reaction of ATP with added UltraGlo® recombinant luciferase (Kawano et al., 2016, PLOS One, 8; 11(7):e0158888), according to the supplier's experimental recommendations. The assay was based on a 96 well plate format.
# (§3) Test compounds were dissolved at 10 mM in DMSO (Sigma catalog no. D8418; purity≥99.9%) and stored at −20° C. Eight concentrations of test compound were assessed in duplicate in an individual test occasion in parallel in the selected cell lines. Gilteratinib and FF-10101 were used as reference compounds and tested in duplicate at eight concentrations. 100% of proliferation is represented by the untreated cells (0.2% DMSO).
# (§4) On the day of the experiment, cells were quantified with the cell viability analyzer NucleoCounter (Chemometec NC-200) and diluted with fresh medium to obtain the cell density of about 10,000 cells per 200 μL medium. 200 μL of cell suspension were added into wells in the 96 well plate.
# (§5) After 2 hours from seeding cells, compounds at desired concentrations were added using a D300e compound dispenser (Life Sciences Tecan D300) with shaking between each compound dispensed. Assay plates were incubated at 37° C. in a humidified incubator with 5% CO2.
# (§6) On day 4 (˜96 hrs after compound addition) assay plates were equilibrated at room temperature for approximately 15 min, and then 40 μL/well of the Promega CellTiterGlo® reagent was added. Contents were mixed for 5 min on an orbital shaker to promote cell lysis, and then incubated at room temperature for an additional 10 min in the dark to stabilize the luminescent signal. Luminescence was read by using a GloMlax GM300 plate reader (Promega) using the luminescence for 96 well plate standard protocol.
# (§7) Results were analyzed by GraphPad (Prism) and IC50 values were calculated by non-linear regression using four parameter-logistic equation.
# MV-4-11 = assay: Proliferation inhibition, CellTiter-Glo, MV-4-11; conditions: Homo sapiens, MV4-11, 96 h; MV-4:11 cells, IC50 (4 days), CellTiter-Glo; read-out: MV-4:11 IC50
# From the text: as §1, §2, §3, §4, §5, §6, §7
# MOLM-13 = assay: Proliferation inhibition, CellTiter-Glo, MOLM-13; conditions: Homo sapiens, 96 h; MOLM-13 cells, IC50 (4 days), CellTiter-Glo; read-out: MOLM-13 IC50
# From the text: as §1, §2, §3, §4, §5, §6, §7
Structure (SMILES),IC50 (K-562) [nM],IC50 (MV-4-11) [nM],IC50 (MOLM-13) [nM]
"Cc1nc(C(N)=O)c(Nc2cccc(CCNC(=O)[C@H](C)N(C)C(=O)/C=C/CN(C)C)c2)nc1N(C)C [Compound 233, (S,E)-5-(dimethylamino)-3-((3-(2-(2-(4-(dimethylamino)-N-methylbut-2-enamido)propanamido)ethyl)phenyl)amino)-6-methylpyrazine-2-carboxamide]",> 500,< 1,1 to 10
"C=CC(=O)N(C)[C@@H](C)C(=O)NCCc1cccc(Nc2nc(N(C)C(C)C)c(C)nc2C(N)=O)c1 [Compound 231, 5-[isopropyl(methyl)amino]-6-methyl-3-[3-[2-[[(2S)-2-[methyl(prop-2-enoyl)amino]propanoyl]amino]ethyl]anilino]pyrazine-2-carboxamide]",> 500,1 to 10,10 to 100
"[2H]C([2H])([2H])N(C/C=C/C(=O)N(C)[C@@H](C)C(=O)NCCc1cccc(Nc2nc(N(C)CC)c(CC)nc2C(N)=O)c1)C([2H])([2H])[2H] [Compound 246, (S,E)-3-((3-(2-(2-(4-(bis(methyl-d3)amino)-N-methylbut-2-enamido)propanamido)ethyl)phenyl)amino)-6-ethyl-5-(ethyl(methyl)amino)pyrazine-2-carboxamide]",> 500,< 1,< 1
"CCc1nc(C(N)=O)c(Nc2cc(F)cc(CCNC(=O)[C@H](C)N(C)C(=O)/C=C/CN(C)C)c2)nc1C [Compound 163, 3-[3-[2-[[(2S)-2-[[(E)-4-(dimethylamino)but-2-enoyl]-methyl-amino]propanoyl]amino]ethyl]-5-fluoro-anilino]-6-ethyl-5-methyl-pyrazine-2-carboxamide]",> 500,1 to 10,1 to 10
"CCc1nc(C(N)=O)c(Nc2cccc([C@H](C)CNC(=O)CN(C)C(=O)/C=C/CN(C)C)c2)nc1C [Compound 324, (S,E)-3-((3-(1-(2-(4-(dimethylamino)-N-methylbut-2-enamido)acetamido)propan-2-yl)phenyl)amino)-6-ethyl-5-methylpyrazine-2-carboxamide]",> 500,10 to 100,100 to 500
"[2H]C([2H])([2H])N(C/C=C/C(=O)N(C)[C@@H](C)C(=O)NCCc1cccc(Nc2nc(N(C)C(C)C)c(C)nc2C(N)=O)c1)C([2H])([2H])[2H] [Compound 247, (S,E)-3-((3-(2-(2-(4-(bis(methyl-d3)amino)-N-methylbut-2-enamido)propanamido)ethyl)phenyl)amino)-5-(isopropyl(methyl)amino)-6-methylpyrazine-2-carboxamide]",> 500,< 1,1 to 10
"Cc1nc(C(N)=O)c(Nc2cccc(CCNC(=O)[C@H](C)N(C)C(=O)/C=C/CN3CCC3)c2)nc1C1CC1 [Compound 242, (S,E)-3-((3-(2-(2-(4-(azetidin-1-yl)-N-methylbut-2-enamido)propanamido)ethyl)phenyl)amino)-5-cyclopropyl-6-methylpyrazine-2-carboxamide]",> 500,1 to 10,1 to 10
"[2H]C([2H])([2H])N(C(=O)C=C)[C@@H](C)C(=O)NCCc1cccc(Nc2nc(C3CC3)c(CC)nc2C(N)=O)c1 [Compound 237, 5-cyclopropyl-6-ethyl-3-[3-[2-[[(2S)-2-[prop-2-enoyl(trideuteriomethyl)amino]propanoyl]amino]ethyl]anilino]pyrazine-2-carboxamide]",> 500,1 to 10,10 to 100
"CC#CC(=O)N(C)[C@@H](C)C(=O)NCCc1cccc(Nc2nc(N(C)C)c(C)nc2C(N)=O)c1 [Compound 217, 3-[3-[2-[[(2S)-2-[but-2-ynoyl(methyl)amino]propanoyl]amino]ethyl]anilino]-5-(dimethylamino)-6-methyl-pyrazine-2-carboxamide]",> 500,10 to 100,10 to 100
"CCc1nc(C(N)=O)c(Nc2cccc(CCNC(=O)[C@H](C)N(C)C(=O)CCCN(C)C)c2)nc1N(C)C(C)C [Compound 318, 3-[3-[2-[[(2S)-2-[4-(dimethylamino)butanoyl-methyl-amino]propanoyl]amino]ethyl]anilino]-6-ethyl-5-[isopropyl(methyl)amino]pyrazine-2-carboxamide]",> 500,1 to 10,10 to 100
"CCc1nc(C(N)=O)c(Nc2cccc(CCNC(=O)C3(N(C)C(=O)/C=C/CN(C)C)CC3)c2)nc1C [Compound 223, 3-[3-[2-[[1-[[(E)-4-(dimethylamino)but-2-enoyl]-methyl-amino]cyclopropanecarbonyl]amino]ethyl]anilino]-6-ethyl-5-methyl-pyrazine-2-carboxamide]",> 500,1 to 10,10 to 100
"CCc1nc(C(N)=O)c(Nc2cccc(CCNC(=O)[C@H](C)N(C)C(=O)/C=C/CN(C)C)n2)nc1C1CC1 [Compound 313, 5-cyclopropyl-3-[[6-[2-[[(2S)-2-[[(E)-4-(dimethylamino)but-2-enoyl]-methyl-amino]propanoyl]amino]ethyl]-2-pyridyl]amino]-6-ethyl-pyrazine-2-carboxamide]",> 500,10 to 100,100 to 500
"CCc1nc(Nc2cccc(CCNC(=O)[C@H](C)N(C)C(=O)/C=C/CN(C)C)c2)c(C(N)=O)nc1C [Compound 255, 3-[3-[2-[[(2S)-2-[[(E)-4-(dimethylamino)but-2-enoyl]-methyl-amino]propanoyl]amino]ethyl]anilino]-5-ethyl-6-methyl-pyrazine-2-carboxamide]",> 500,1 to 10,10 to 100
"CCc1nc(C(N)=O)c(Nc2cccc(C[C@H](C)NC(=O)CN(C)C(=O)/C=C/CN(C)C)c2)nc1C [Compound 312, 3-[3-[(2S)-2-[[2-[[(E)-4-(dimethylamino)but-2-enoyl]-methyl-amino]acetyl]amino]propyl]anilino]-6-ethyl-5-methyl-pyrazine-2-carboxamide]",> 500,10 to 100,100 to 500
"CCc1nc(C(N)=O)c(Nc2cccc(CCNC(=O)[C@H](C)N(C)C(=O)/C(F)=C/CN(C)C)c2)nc1N(C)C [Compound 162, (S,Z)-5-(dimethylamino)-3-((3-(2-(2-(4-(dimethylamino)-2-fluoro-N-methylbut-2-enamido)propanamido)ethyl)phenyl)amino)-6-ethylpyrazine-2-carboxamide]",> 500,10 to 100,100 to 500
"CCc1cc(C(N)=O)c(Nc2cccc(CCNC(=O)[C@H](C)N(C)C(=O)/C=C/CN(C)C)c2)nc1N(C)C [Compound 322, (S,E)-6-(dimethylamino)-2-((3-(2-(2-(4-(dimethylamino)-N-methylbut-2-enamido)propanamido)ethyl)phenyl)amino)-5-ethylnicotinamide]",> 500,10 to 100,100 to 500
"[2H]C([2H])([2H])N(C/C=C/C(=O)N(C)[C@@H](C)C(=O)NCCc1cccc(Nc2nc(C)c(CC)nc2C(N)=O)c1)C([2H])([2H])[2H] [Compound 164, 3-[3-[2-[[(2S)-2-[[(E)-4-[bis(trideuteriomethyl)amino]but-2-enoyl]-methyl-amino]propanoyl]amino]ethyl]anilino]-6-ethyl-5-methyl-pyrazine-2-carboxamide]",> 500,1 to 10,10 to 100
"CCc1cc(C(N)=O)c(Nc2cncc(CCNC(=O)[C@H](C)N(C)C(=O)/C=C/CN(C)C)c2)nc1C1CC1 [Compound 320, 6-cyclopropyl-2-[[5-[2-[[(2S)-2-[[(E)-4-(dimethylamino)but-2-enoyl]-methyl-amino]propanoyl]amino]ethyl]-3-pyridyl]amino]-5-ethyl-pyridine-3-carboxamide]",> 500,10 to 100,100 to 500
